# According to article PMC3775635, “Do N-arachidonyl-glycine (NA-glycine) and 2-arachidonoyl glycerol (2-AG) share mode of action and the binding site on the β2 subunit of GABAA receptors?” (PeerJ, 2013):
# Target: T1, GABAA receptor β2 subunit (α1β2γ2 GABAA receptor) (Rattus norvegicus, UniProt P63138)
# T1 construct: gene Gabrb2; recombinant α1β2γ2 receptor expressed in Xenopus oocytes; also concatenated α1-β2-α1/γ2-β2; with GABAA receptor α1 and γ2 subunits
# Test: two-electrode voltage clamp in Xenopus oocytes, potentiation of GABA currents; beta1/beta2 concatemers and point mutants
# Type: cell-based
# T1 sequence (P63138 26-474): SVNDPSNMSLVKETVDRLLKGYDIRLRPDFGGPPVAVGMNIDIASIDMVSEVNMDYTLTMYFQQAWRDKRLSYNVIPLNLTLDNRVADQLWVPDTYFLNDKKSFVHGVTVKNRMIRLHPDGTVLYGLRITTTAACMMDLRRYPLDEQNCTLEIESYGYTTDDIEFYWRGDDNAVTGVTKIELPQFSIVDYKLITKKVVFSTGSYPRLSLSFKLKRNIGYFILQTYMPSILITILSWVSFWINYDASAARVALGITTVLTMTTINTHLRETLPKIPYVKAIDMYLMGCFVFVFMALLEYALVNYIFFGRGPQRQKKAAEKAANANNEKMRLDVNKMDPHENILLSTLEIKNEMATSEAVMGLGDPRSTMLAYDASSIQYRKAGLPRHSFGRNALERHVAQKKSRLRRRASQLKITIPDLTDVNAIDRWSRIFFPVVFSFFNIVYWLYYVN
# T1 sequence (P62813 28-455 partner): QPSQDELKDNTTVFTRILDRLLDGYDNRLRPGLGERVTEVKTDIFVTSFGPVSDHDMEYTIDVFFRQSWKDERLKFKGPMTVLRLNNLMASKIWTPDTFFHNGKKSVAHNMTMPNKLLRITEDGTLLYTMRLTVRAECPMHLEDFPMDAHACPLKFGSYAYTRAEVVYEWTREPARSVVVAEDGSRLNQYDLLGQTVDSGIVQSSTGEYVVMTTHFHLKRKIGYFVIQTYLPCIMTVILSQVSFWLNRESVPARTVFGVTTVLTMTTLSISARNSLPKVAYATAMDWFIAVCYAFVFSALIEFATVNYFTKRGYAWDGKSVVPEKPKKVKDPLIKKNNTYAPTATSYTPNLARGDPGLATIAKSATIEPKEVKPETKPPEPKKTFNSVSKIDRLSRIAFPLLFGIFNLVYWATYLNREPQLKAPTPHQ
# T1 sequence (P18508 39-466 partner): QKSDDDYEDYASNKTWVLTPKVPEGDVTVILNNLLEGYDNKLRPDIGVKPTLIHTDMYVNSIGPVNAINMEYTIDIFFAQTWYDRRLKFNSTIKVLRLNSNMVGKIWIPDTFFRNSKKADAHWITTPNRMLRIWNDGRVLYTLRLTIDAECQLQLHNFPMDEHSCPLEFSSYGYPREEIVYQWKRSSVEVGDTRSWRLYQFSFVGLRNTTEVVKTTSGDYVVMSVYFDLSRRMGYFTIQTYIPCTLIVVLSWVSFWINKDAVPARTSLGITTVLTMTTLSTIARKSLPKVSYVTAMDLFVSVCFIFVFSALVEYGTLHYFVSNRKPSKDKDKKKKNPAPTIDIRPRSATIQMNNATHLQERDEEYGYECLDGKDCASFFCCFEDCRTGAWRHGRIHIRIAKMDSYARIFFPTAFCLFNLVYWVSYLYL
structure (smiles),measurement,value
CCCCC/C=C\C/C=C\C/C=C\C/C=C\CCCC(=O)NCC(=O)O [NA-glycine],EC50,1 to 10 µM
